The values that follow come from patent publication US20100292222A1, “CHEMICAL COMPOUNDS 751” (ASTRAZENECA AB, priority 2009, published 2010).

In this test the target is T1, Androgen Receptor (AR) (Homo sapiens, UniProt P10275, T878A).
T1 construct: cell based immuno-fluorescence assay using the LNCaP prostate epithelial cell line; host or cells: LNCaP clone FGC prostate carcinoma cells
T1 sequence (P10275 1-920 T878A): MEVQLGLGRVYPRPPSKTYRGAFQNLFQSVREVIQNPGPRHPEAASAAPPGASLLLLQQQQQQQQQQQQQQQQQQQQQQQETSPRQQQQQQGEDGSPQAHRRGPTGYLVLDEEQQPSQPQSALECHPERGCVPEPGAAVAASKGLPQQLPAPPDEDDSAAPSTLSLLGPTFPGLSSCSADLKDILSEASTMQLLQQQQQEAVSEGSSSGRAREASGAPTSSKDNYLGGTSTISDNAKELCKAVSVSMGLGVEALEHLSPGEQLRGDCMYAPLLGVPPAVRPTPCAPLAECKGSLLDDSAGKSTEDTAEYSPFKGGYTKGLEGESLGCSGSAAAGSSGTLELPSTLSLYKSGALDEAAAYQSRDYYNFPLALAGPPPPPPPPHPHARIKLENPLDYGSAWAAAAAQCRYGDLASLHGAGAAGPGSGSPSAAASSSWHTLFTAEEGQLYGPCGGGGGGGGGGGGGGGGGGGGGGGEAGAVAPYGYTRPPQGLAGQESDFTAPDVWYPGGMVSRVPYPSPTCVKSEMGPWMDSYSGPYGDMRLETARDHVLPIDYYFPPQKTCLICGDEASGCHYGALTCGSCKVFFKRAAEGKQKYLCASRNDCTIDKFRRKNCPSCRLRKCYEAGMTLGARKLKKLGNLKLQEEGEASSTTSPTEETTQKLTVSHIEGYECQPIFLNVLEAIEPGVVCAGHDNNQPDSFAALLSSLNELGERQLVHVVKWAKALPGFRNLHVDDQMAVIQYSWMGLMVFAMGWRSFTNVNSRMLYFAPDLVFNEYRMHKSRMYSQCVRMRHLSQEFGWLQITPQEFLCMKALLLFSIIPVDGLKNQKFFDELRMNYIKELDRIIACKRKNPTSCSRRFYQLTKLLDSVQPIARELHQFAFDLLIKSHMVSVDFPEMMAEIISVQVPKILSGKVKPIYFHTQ
Briefly: LNCaP Androgen Receptor Down-Regulation Cell Assay. In kind it is cell-based. The following applies: LNCaP prostate carcinoma cell line; 20-22 hours incubation; immunofluorescence; 50% reduction of the AR signal. As for the experimental part: The ability of compounds to reduce Androgen Receptor (AR) numbers was assessed in a cell based immuno-fluorescence assay using the LNCaP prostate epithelial cell line.
This immunofluorescence end point assay measures the ability of a test compound to down-regulate and reduce measured levels of the AR in the LNCaP prostate carcinoma cell line (LNCaP clone FGC (CRL-1740) obtained from the American Type Culture Collection (ATCC)).
LNCaP cells were cultured in Growth Medium (phenol red free Roswell Park Memorial Institute (RPMI) 1640 (Invitrogen Code no. 11835-063) containing 2 mM L-Glutamine (Invitrogen Code no. 25030-024) and 1% (v/v) Penicillin/Streptomycin (10000 units/ml Penicillin and 10000 μg/ml of Streptomycin utilising penicillin G (sodium salt) and streptomycin sulphate: prepared in normal saline, Invitrogen Code no. 15140122) and 10% (v/v) foetal bovine serum (FBS)) in a 5% CO2 air incubator at 37° C. Cells for assay were harvested from T175 stock flasks by washing once in PBS (phosphate buffered saline, pH 7.4) (Invitrogen Code no. 14190-094) and harvested using 5 mls of 1× Trypsin/ethylaminediaminetetraacetic acid (EDTA) (10× Trypsin-EDTA, 5.0 g/L Trypsin, 2.0 g/L of EDTA•4Na and 8.5 g/L of NaCl, without Phenol Red, Invitrogen Code no. 15400-054) diluted in PBS solution. A 5 ml volume of Growth Medium was added to each flask (as above except that 5% (v/v) charcoal stripped FBS (HyClone Code no. SH30068.03) was included instead of 10% (v/v) FBS). Cells were syringed at least twice using a sterile 18G×1.5″ (1.2×40 mm) broad gauge needle and cell density was measured using a haemocytometer. Cells were further diluted in Growth Medium plus 5% (v/v) charcoal stripped FBS and seeded at a density of 6.5×10^3 cells per well (in 90 ul) into transparent, black, tissue culture treated 96 well plates (Packard, No. 6005182).
Test data reported herein was generated using two different compounds preparation and dosing methods. In method (1) a 10 mM compound stock solution in 100% (v/v) DMSO was serially diluted in 4-fold steps in 100% (v/v) DMSO using a Thermo Scientific Matrix SerialMate. The diluted compounds were then further diluted 1 in 30 in assay media using a Thermo Scientific Matrix PlateMate and a 10 μl aliquot of this dilution was dosed to cells manually using a multi-channel pipette. In method (2) starting with a 10 mM compound stock solution, the Labcyte Echo 550 was used to generate a compound concentration response set diluted in 30 μl of assay media. The Echo 550 is a liquid handler that uses acoustic technology to perform direct microplate-to-microplate transfers of DMSO compound solutions. The system can be programmed to transfer volumes as low as […] in multiple increments between microplates and in so doing generates a serial dilution of compound which is then back-filled to normalise the DMSO is concentration across the dilution range. A 10 μl volume of diluted compound is then dosed to cells using a Thermo Scientific Matrix PlateMate.
Plates were incubated overnight at 37° C., 5% CO2. Wells were then dosed with compound prepared by one of the 2 methods above and further incubated for 20-22 hours at 37° C., 5% CO2. Plates were fixed by the addition of 20 μl of 10% (v/v) formaldehyde solution (in PBS) to each well (final formaldehyde conc.=1.67% (v/v)) and left at room temperature for 10 mins. This fixative solution was removed and cells were washed with 250 μl of PBS/0.05% (v/v) Tween 20 (PBST) using an automated plate washer. This process was then repeated twice more.
Immunostaining was performed at room temperature. Cells were permeabilised by the addition of 35 μl of PBS containing 0.5% Tween 20 and incubated for 1 hour at room temperature. Permeabilisation solution was removed and cells were washed with 250 μl of PBST using an automated plate washer. This process was then repeated twice more. […]
As usually defined, the IC50 is the concentration at which inhibition is half-maximal. On to `CC(=O)N1CCN([C@H](C)COc2ccc(C3(O)CCN(c4ccc5nnc(C(F)(F)F)n5n4)CC3)cc2)CC1` (single isomer, unassigned) [Example 43, 4-{4-[2-(4-acetylpiperazin-1-yl)propoxy]phenyl}-1-[3-(trifluoromethyl)[1,2,4]triazolo[4,3-b]pyridazin-6-yl]piperidin-4-ol], for which the IC50 worked out at 84 nM. Next, `CC(=O)N1CCN([C@H](C)COc2ccc(C3(O)CCN(c4ccc5nnc(C(F)(F)F)n5n4)CC3)cc2)CC1` (single isomer, unassigned) [Example 44, 4-{4-[2-(4-acetylpiperazin-1-yl)propoxy]phenyl}-1-[3-(trifluoromethyl)[1,2,4]triazolo[4,3-b]pyridazin-6-yl]piperidin-4-ol]: 36 nM; `CC(=O)N1CCCN([C@H](C)COc2ccc(C3(O)CCN(c4ccc5nnc(C(F)(F)F)n5n4)CC3)cc2)CC1` (single isomer, unassigned) [Example 45, 4-{4-[2-(4-acetyl-1,4-diazepan-1-yl)propoxy]phenyl}-1-[3-(trifluoromethyl)[1,2,4]triazolo[4,3-b]pyridazin-6-yl]piperidin-4-ol]: 82 nM.

In turn, `CC(=O)N1CCCN([C@H](C)COc2ccc(C3(O)CCN(c4ccc5nnc(C(F)(F)F)n5n4)CC3)cc2)CC1` (single isomer, unassigned) [Example 46, 4-{4-[2-(4-acetyl-1,4-diazepan-1-yl)propoxy]phenyl}-1-[3-(trifluoromethyl)[1,2,4]triazolo[4,3-b]pyridazin-6-yl]piperidin-4-ol] showed an IC50 of 18 nM. Next, `CC(=O)N1CCN(CCCOc2ccc(N3CCN(c4ccc5nnc(C(F)(F)F)n5n4)CC3)cc2)CC1` [Example 1.1, 6-(4-{4-[3-(4-acetylpiperazin-1-yl)propoxy]phenyl}piperazin-1-yl)-3-(trifluoromethyl)[1,2,4]-triazolo[4,3-b]pyridazine]: 1500 nM; `CN1CCN(CCOc2ccc(C3CCN(c4ccc5nnc(C(F)(F)F)n5n4)CC3)cc2)CC1=O` [Example 2, 1-methyl-4-[2-(4-{1-[3-(trifluoromethyl)[1,2,4]-triazolo[4,3-b]pyridazin-6-yl]piperidin-4-yl}phenoxy)ethyl]piperazin-2-one]: 310 nM; `CN1CCN(CCOc2ccc(C3(O)CCN(c4ccc5nnc(C(F)(F)F)n5n4)CC3)cc2)CC1=O` [Example 3, 4-[2-(4-[4-hydroxy-1-[3-(trifluoromethyl)[1,2,4]-triazolo[4,3-b]pyridazin-6-yl]piperidin-4-yl]phenoxy)ethyl]-1-methylpiperazin-2-one]: 360 nM. Next, `CN1CCN(CCOc2ccc(N3CCN(c4ccc5nnc(C(F)(F)F)n5n4)CC3)cc2)CC1=O` [Example 4, 1-methyl-4-[2-(4-{4-[3-(trifluoromethyl)[1,2,4]triazolo[4,3-b]pyridazin-6-yl]piperazin-1-yl}phenoxy)ethyl]piperazin-2-one]: 5700 nM; `O=C1CN(CCOc2ccc(N3CCN(c4ccc5nnc(C(F)(F)F)n5n4)CC3)cc2)CCN1C1CC1` [Example 5, 1-cyclopropyl-4-[2-(4-{4-[3-(trifluoromethyl)[1,2,4]-triazolo[4,3-b]pyridazin-6-yl]piperazin-1-yl}phenoxy)ethyl]piperazin-2-one]: 7800 nM; `O=C1CN(CCOc2ccc(C3CCN(c4ccc5nnc(C(F)(F)F)n5n4)CC3)cc2)CCN1C1CC1` [Example 6, 1-cyclopropyl-4-[2-(4-{1-[3-(trifluoromethyl)[1,2,4]-triazolo[4,3-b]pyridazin-6-yl]piperidin-4-yl}phenoxy)ethyl]piperazin-2-one]: 510 nM. In the case of `CN1CCN(CCOc2ccc(N3CCN(c4ccc5nnc(C(F)(F)F)n5n4)CC3)cc2)C(=O)C1` [Example 7, 4-methyl-1-[2-(4-{4-[3-(trifluoromethyl)[1,2,4]-triazolo[4,3-b]pyridazin-6-yl]piperazin-1-yl}phenoxy)ethyl]piperazin-2-one] it was 6500 nM; in that of `CN1CCN(CCOc2ccc(C3CCN(c4ccc5nnc(C(F)(F)F)n5n4)CC3)cc2)C(=O)C1` [Example 8, 4-methyl-1-[2-(4-{1-[3-(trifluoromethyl)[1,2,4]triazolo[4,3-b]pyridazin-6-yl]piperidin-4-yl}phenoxy)ethyl]piperazin-2-one], 1000 nM; in that of `CN1CCN(CCCOc2ccc(C3CCN(c4ccc5nnc(C(F)(F)F)n5n4)CC3)cc2)CC1=O` [Example 9, 1-methyl-4-[3-(4-{1-[3-(trifluoromethyl)[1,2,4]triazolo[4,3-b]pyridazin-6-yl]piperidin-4-yl}phenoxy)propyl]piperazin-2-one], 300 nM. In turn, `O=C1CN(CCCOc2ccc(C3CCN(c4ccc5nnc(C(F)(F)F)n5n4)CC3)cc2)CCN1C1CC1` [Example 10, 1-cyclopropyl-4-[3-(4-{1-[3-(trifluoromethyl)[1,2,4]triazolo[4,3-b]pyridazin-6-yl]piperidin-4-yl}phenoxy)propyl]piperazin-2-one] displayed an IC50 of 410 nM. In the case of `CN1CCN(CCOc2ccc(C3CCN(c4ccc5nnc(C(F)(F)F)n5n4)CC3)cn2)CC1=O` [Example 11, 1-methyl-4-{2-[(5-{1-[3-(trifluoromethyl)[1,2,4]triazolo[4,3-b]pyridazin-6-yl]piperidin-4-yl}pyridin-2-yl)oxy]ethyl}piperazin-2-one] it was 1600 nM. `CN1CCN(CCOc2ccc(C3(O)CCN(c4ccc5nnc(C(F)(F)F)n5n4)CC3)cc2F)CC1=O` [Example 12, 4-[2-(2-fluoro-4-{4-hydroxy-1-[3-(trifluoromethyl)[1,2,4]triazolo[4,3-b]pyridazin-6-yl]piperidin-4-yl}phenoxy)ethyl]-1-methylpiperazin-2-one]: the half-maximal inhibitory concentration (IC50) amounted to 670 nM. The molecule `CN1CCN(CCOc2ccc(C3CCN(c4ccc5nnc(C(F)(F)F)n5n4)CC3)cc2F)CC1=O` [Example 13, 4-[2-(2-fluoro-4-{1-[3-(trifluoromethyl)[1,2,4]triazolo[4,3-b]pyridazin-6-yl]piperidin-4-yl}phenoxy)ethyl]-1-methylpiperazin-2-one] gave a 50% inhibitory concentration (IC50) of 310 nM.
